These results are taken from US12459967B2, “Modulators of 5′-nucleotidase, ecto and the use thereof” (Arcus Biosciences, Inc., priority 2016, dated 2025).

The structures appear in SMILES notation. pIC50: −log10 of the molar value.

This assay deals with T1, human CD73 (Homo sapiens, UniProt P21589).
T1 construct: host or cells: CHO-K1 (suspension pool CHO-CD73)
T1 sequence (P21589 27-549): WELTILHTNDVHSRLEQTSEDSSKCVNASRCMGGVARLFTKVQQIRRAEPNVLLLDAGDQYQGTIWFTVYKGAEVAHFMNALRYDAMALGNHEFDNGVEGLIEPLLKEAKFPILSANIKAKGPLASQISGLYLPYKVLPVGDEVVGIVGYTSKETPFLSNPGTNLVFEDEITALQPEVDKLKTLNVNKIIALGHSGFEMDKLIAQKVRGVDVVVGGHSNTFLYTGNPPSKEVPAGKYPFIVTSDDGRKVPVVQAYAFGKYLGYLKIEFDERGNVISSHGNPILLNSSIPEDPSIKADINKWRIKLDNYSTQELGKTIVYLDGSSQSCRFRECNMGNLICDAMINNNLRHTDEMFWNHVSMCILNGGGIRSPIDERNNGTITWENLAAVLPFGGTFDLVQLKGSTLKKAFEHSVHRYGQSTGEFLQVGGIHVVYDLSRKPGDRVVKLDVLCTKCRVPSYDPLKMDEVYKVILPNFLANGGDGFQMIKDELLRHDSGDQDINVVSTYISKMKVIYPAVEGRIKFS
Put plainly: Inhibition of ecto-5′-nucleotidase (CD73) activity in CHO-CD73 cells, phosphate colorimetric readout. The following applies: CHO-K1 cells stably transfected with human CD73, 2500 cells per well, 25 μM AMP substrate, 50 minutes incubation at 37° C.; read-out: Potency: CD73 IC50. The assay is classed as cell-based. How it is done: Inhibition of Ecto-5′-nucleotidase Activity. Compounds were evaluated to determine their ecto-5′-nucleotidase (CD73) inhibitory activity. Briefly, CHO-K1 cells stably transfected with human CD73 were generated by LakePharma (Belmont, CA) using molecular cloning of human CD73 (http://www.uniprot.org/uniprot/P21589) and mammalian transient expression vector (P21589.1). After antibiotic selection in CD OptiCHO cell media (Invitrogen, Catalog #12681-011) containing 5 μg/mL Puromycin and 200 μg/mL Hygromycin B, a suspension pool of CHO-CD73 cells was collected and frozen in 7.5% DMSO in cell media without antibiotics.
On the day of the experiment, one vial of CHO-CD73 cells was thawed and suspended in assay media which consisted of 20 mM HEPES, pH 7.4, 137 mM NaCl, 5.4 mM KCl, 1.3 mM CaCl2), 4.2 mM NaHCO3 and 0.1% glucose. To test the ability of compounds to inhibit CD73 enzymatic activity, 2 μL of 500 μM of compounds dissolved in DMSO (50×) were added to a 96-well polystyrene plate containing 58 μL of assay buffer. Next, 20 μL of CHO-CD73 cells in assay buffer were added to assay plate followed by 20 μL of 125 μM AMP (Adenosine 5′-monophosphate monohydrate) in assay buffer. Final assay conditions consisted of 2500 cells per well in 2% DMSO and 25 μM of AMP substrate. After 50 minutes of incubation (37° C. and 5% CO2) and centrifugation at 225×g for 5 mins, 80 μL of supernatant were transferred to a 96-well Spectra Plate (PerkinElmer, cat #6005640) which was pre-dispensed with 20 μL of PiColorLock Gold colorimetric assay reagents (Thermo, cat #30 300 30). The amount of inorganic phosphate was determined by reading the absorbance at 620 nm on an EnVision Multilabel Plate Reader (PerkinElmer). Enzymatic activity of CD73 was based on the amount of phosphate generated. Percentage of activity was calculated based on DMSO and no cells control wells. IC50 values of compounds were determined by four parameter non-linear regression fitting of percentage of activity in GraphPad Prism software.
For orientation: pIC50 means −log10 of the IC50, conventionally taken in molar units. Consider `CC(C)Nc1nc(Cl)nc2c1ncn2[C@@H]1O[C@H](COP(=O)(O)CP(=O)(O)O)[C@@H](O)[C@H]1O`, for which the pIC50 is more than 7.00.

In the case of `O=P(O)(O)CP(=O)(O)OC[C@H]1O[C@@H](n2cnc3c(NC4CC4)nc(Cl)nc32)[C@@H](F)[C@@H]1O`, the pIC50 is more than 7.00.

Consider `CC(C)(C)CNc1nc(Cl)nc2c1ncn2[C@@H]1O[C@H](COP(=O)(O)CP(=O)(O)O)[C@@H](O)[C@H]1O`, for which the pIC50 is more than 7.00.

For the molecule `CC(C)N(C)c1nc(Cl)nc2c1ncn2[C@@H]1O[C@H](COP(=O)(O)CP(=O)(O)O)[C@@H](O)[C@H]1O`, the pIC50 is more than 7.00.

Turning to `O=P(O)(O)CP(=O)(O)OC[C@H]1O[C@@H](n2cnc3c(NCc4cccc(F)c4)nc(Cl)nc32)[C@@H](F)[C@@H]1O`, the pIC50 is more than 7.00.

Consider `O=P(O)(O)CP(=O)(O)OC[C@H]1O[C@@H](n2cnc3c(NCc4cccc(Cl)c4)nc(Cl)nc32)[C@@H](F)[C@@H]1O`, for which the pIC50 is more than 7.00.

For `O=P(O)(O)CP(=O)(O)OC[C@H]1O[C@@H](n2cnc3c(NCc4ccccc4Cl)nc(Cl)nc32)[C@@H](F)[C@@H]1O`, the pIC50 was more than 7.00.

On to `CN(Cc1ccccc1Cl)c1nc(Cl)nc2c1ncn2[C@@H]1O[C@H](COP(=O)(O)CP(=O)(O)O)[C@@H](O)[C@@H]1F`, for which the pIC50 is more than 7.00.

For `O=P(O)(O)CP(=O)(O)OC[C@H]1O[C@@H](n2cnc3c(NCc4ccncc4)nc(Cl)nc32)[C@@H](F)[C@@H]1O`, the pIC50 is more than 7.00.

With `O=P(O)(O)CP(=O)(O)OC[C@H]1O[C@@H](n2cnc3c(NCCc4ccccc4)nc(Cl)nc32)[C@@H](F)[C@@H]1O`, the pIC50 was more than 7.00.

For `Cc1nc(NCc2ccccc2)c2ncn([C@@H]3O[C@H](COP(=O)(O)CP(=O)(O)O)[C@@H](O)[C@@H]3F)c2n1`, the pIC50 was more than 7.00.

Take `Cc1nc(NC2CCCC2)c2ncn([C@@H]3O[C@H](COP(=O)(O)CP(=O)(O)O)[C@@H](O)[C@@H]3F)c2n1`: the pIC50 was more than 7.00.

Turning to `O=P(O)(O)CP(=O)(O)OC[C@H]1O[C@@H](n2cnc3c(NCc4ccccc4)nc(C(F)(F)F)nc32)[C@@H](F)[C@@H]1O`, the pIC50 was more than 7.00.

For `O=P(O)(O)CP(=O)(O)OC[C@H]1O[C@@H](n2cnc3c(NC4CCCC4)nc(C(F)(F)F)nc32)[C@@H](F)[C@@H]1O`, the pIC50 is more than 7.00.

Turning to `O=P(O)(O)CP(=O)(O)OC[C@H]1O[C@@H](n2cnc3c(NCc4ccccc4)nc(-c4ccccc4)nc32)[C@@H](F)[C@@H]1O`, the pIC50 was more than 7.00.

On to `O=P(O)(O)CP(=O)(O)OC[C@H]1O[C@@H](n2cnc3c(NCc4ccccc4)nc(Cc4ccccc4)nc32)[C@@H](F)[C@@H]1O`, for which the pIC50 is more than 7.00.

Turning to `O=P(O)(O)CP(=O)(O)OC[C@H]1O[C@@H](n2cnc3c(NC4CCCC4)nc(CN4CCCCC4)nc32)[C@@H](F)[C@@H]1O`, the pIC50 is 6.00 to 7.00.

Consider `COCc1nc(NC2CCCC2)c2ncn([C@@H]3O[C@H](COP(=O)(O)CP(=O)(O)O)[C@@H](O)[C@@H]3F)c2n1`, for which the pIC50 was more than 7.00.

Turning to `O=P(O)(O)CP(=O)(O)OC[C@H]1O[C@@H](n2cnc3c(NCc4ccccc4)nc(C(O)c4ccccc4)nc32)[C@@H](F)[C@@H]1O` (some centres unmarked), the pIC50 was more than 7.00.

Regarding `O=P(O)(O)CP(=O)(O)OC[C@H]1O[C@@H](n2cnc3c(NCc4ccccc4)nc(C#Cc4ccccc4)nc32)[C@@H](F)[C@@H]1O`, the pIC50 was more than 7.00.

`O=P(O)(O)CP(=O)(O)OC[C@H]1O[C@@H](n2cnc3c(NCc4ccccc4)nc(CCc4ccccc4)nc32)[C@@H](F)[C@@H]1O`: the pIC50 is more than 7.00.

For `C#Cc1nc(NCc2ccccc2)c2ncn([C@@H]3O[C@H](COP(=O)(O)CP(=O)(O)O)[C@@H](O)[C@@H]3F)c2n1`, the pIC50 is more than 7.00.

Regarding `O=P(O)(O)CP(=O)(O)OC[C@H]1O[C@@H](n2cnc3c(OCc4ccccc4)nc(Cl)nc32)[C@@H](F)[C@@H]1O`, the pIC50 was more than 7.00.

Turning to `O=P(O)(O)CP(=O)(O)OC[C@H]1O[C@@H](n2ccc3c(NCc4ccccc4)nc(Cl)nc32)[C@@H](F)[C@@H]1O`, the pIC50 is more than 7.00.

In the case of `O=P(O)(O)CP(=O)(O)OC[C@H]1O[C@@H](n2ccc3c(NC4CCCC4)nc(Cl)nc32)[C@@H](F)[C@@H]1O`, the pIC50 was more than 7.00.

For the molecule `CC(Cn1cnc2c(NCc3ccccc3)ncnc21)OP(=O)(O)CP(=O)(O)O` (centres unmarked), the pIC50 was less than 6.00.

For the molecule `CC(COP(=O)(O)CP(=O)(O)O)n1cnc2c(NCc3ccccc3)ncnc21` (centres unmarked), the pIC50 was less than 6.00.

Take `Nc1nc(F)nc2c1ncn2[C@@H]1O[C@H](COP(=O)(O)CP(=O)(O)O)[C@@H](O)[C@H]1O`: the pIC50 is more than 7.00.

`Nc1nc(C(O)C2CC2)nc2c1ncn2[C@@H]1O[C@H](COP(=O)(O)CP(=O)(O)O)[C@@H](O)[C@@H]1F` (some centres unmarked): the negative logarithm of the IC50 (pIC50) is more than 7.00.

In the case of `CN(c1nc(Cl)nc2c1ncn2[C@@H]1O[C@H](COP(=O)(O)CP(=O)(O)O)[C@@H](O)[C@H]1O)C1CCCC1`, the pIC50 is more than 7.00.

Consider `CC(OP(=O)(O)CP(=O)(O)O)[C@H]1O[C@@H](n2cnc3c(NCc4ccccc4)nc(Cl)nc32)[C@H](O)[C@@H]1O` (some centres unmarked), for which the pIC50 is more than 7.00.

As for `CCC(OP(=O)(O)CP(=O)(O)O)[C@H]1O[C@@H](n2cnc3c(NCc4ccccc4)nc(Cl)nc32)[C@H](O)[C@@H]1O` (some centres unmarked), the pIC50 was more than 7.00.

As for `C[C@@]1(O)[C@H](O)[C@@H](COP(=O)(O)CP(=O)(O)O)O[C@H]1n1cnc2c(NC3CCCC3)nc(Cl)nc21`, the pIC50 is more than 7.00.

For `CN(c1nc(Cl)nc2c1ncn2[C@@H]1O[C@H](COP(=O)(O)CP(=O)(O)O)[C@@H](O)[C@@]1(C)O)C1CCCC1`, the pIC50 is more than 7.00.

With `COP(=O)(O)CP(=O)(O)OC[C@H]1O[C@@H](n2cnc3c(NC4CCCC4)nc(Cl)nc32)[C@H](O)[C@@H]1O`, the pIC50 is 6.00 to 7.00.

Turning to `CN(c1nc(Cl)nc2c1ncn2[C@@H]1O[C@H](COP(=O)(CP(=O)(Oc2ccccc2)Oc2ccccc2)Oc2ccccc2)[C@@H](O)[C@H]1O)C1CCCC1` (some centres unmarked), the pIC50 is less than 6.00.

As to `CN(c1nc(Cl)nc2c1ncn2[C@@H]1O[C@H](COP(=O)(CP(=O)(Oc2cccc(Cl)c2)Oc2cccc(Cl)c2)Oc2cccc(Cl)c2)[C@@H](O)[C@H]1O)C1CCCC1` (some centres unmarked), the pIC50 is less than 6.00.

In the case of `CN(c1nc(Cl)nc2c1ncn2[C@@H]1O[C@H](COP(=O)(CP(=O)(Oc2ccc(Cl)c(Cl)c2)Oc2ccc(Cl)c(Cl)c2)Oc2ccc(Cl)c(Cl)c2)[C@@H](O)[C@H]1O)C1CCCC1` (some centres unmarked), the pIC50 was less than 6.00.

With `COC(=O)c1ccccc1OP(=O)(CP(=O)(Oc1ccccc1C(=O)OC)Oc1ccccc1C(=O)OC)OC[C@H]1O[C@@H](n2cnc3c(N(C)C4CCCC4)nc(Cl)nc32)[C@H](O)[C@@H]1O` (some centres unmarked), the pIC50 is less than 6.00.

With `C[C@H](Nc1nc(Cl)nc2c1ncn2[C@@H]1O[C@H](COP(=O)(O)CP(=O)(O)O)[C@@H](O)[C@@H]1F)c1ccc(F)cc1`, the pIC50 is more than 7.00.

Take `C[C@@H](Nc1nc(Cl)nc2c1ncn2[C@@H]1O[C@H](COP(=O)(O)CP(=O)(O)O)[C@@H](O)[C@@H]1F)c1ccccc1`: the pIC50 was more than 7.00.

With `C[C@H](Nc1nc(Cl)nc2c1ncn2[C@@H]1O[C@H](COP(=O)(O)CP(=O)(O)O)[C@@H](O)[C@@H]1F)c1ccccc1`, the pIC50 was more than 7.00.

`O=P(O)(O)CP(=O)(O)OC[C@H]1O[C@@H](n2cnc3c(NC4CCCC4)nc(C(O)C4CCOCC4)nc32)[C@@H](F)[C@@H]1O` (some centres unmarked): the pIC50 was 6.00 to 7.00.

With `CN(c1nc(Cl)nc2c1ncn2[C@@H]1O[C@H](COP(=O)(O)CP(=O)(O)O)[C@@H](O)[C@@H]1F)C1CCCC1`, the pIC50 was more than 7.00.

Regarding `COP(=O)(O)CP(=O)(O)OC[C@H]1O[C@@H](n2cnc3c(N(C)C4CCCC4)nc(Cl)nc32)[C@@H](F)[C@@H]1O`, the pIC50 was 6.00 to 7.00.

As to `COP(=O)(O)CP(=O)(OC)OC[C@H]1O[C@@H](n2cnc3c(N(C)C4CCCC4)nc(Cl)nc32)[C@@H](F)[C@@H]1O` (some centres unmarked), the pIC50 was less than 6.00.

On to `COP(=O)(CP(=O)(O)OC[C@H]1O[C@@H](n2cnc3c(N(C)C4CCCC4)nc(Cl)nc32)[C@@H](F)[C@@H]1O)OC`, for which the pIC50 was less than 6.00.
